Laboratory results as given in the supplement of paper PMC4862054.

Assays:
Experiment in all cases: normalised response (% of control), CellTiter-Glo; higher = more viable cells (100 = DMSO, 0 = benzethonium chloride kill control)
Conditions in all cases: incubation time: 72 h
[1] = tested on: BT-474
Outline: (§1)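 Each entry is the normalised signal at a single concentration within a series. The series comprised 5 concentrations in 10-fold steps over a compound-specific 10,000-fold range, placed in 384-well plates into which breast cancer cell lines were seeded as 20 µl suspension and incubated 72 h. CellTox Green (485/520 nm) fluorescence and then CellTiter-Glo luminescence were read, with signals normalised per plate to 0.1 % DMSO (100) and a positive kill control (0).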

[2] = tested on: BT-549
Outline: as §1

[3] = tested on: CAL-120
Outline: as §1

[4] = tested on: CAL-148
Outline: as §1

[5] = tested on: CAL-51
Outline: as §1

[6] = tested on: CAL-85-1
Outline: as §1

[7] = tested on: DU-4475
Outline: as §1

[8] = tested on: HCC1143
Outline: as §1

[9] = tested on: HCC1599
Outline: as §1

[10] = tested on: HCC1937
Outline: as §1

[11] = tested on: HDQ-P1
Outline: as §1

[12] = tested on: Hs578T
Outline: as §1

[13] = tested on: MCF-10A
Outline: as §1

[14] = tested on: MDA-MB-231
Outline: as §1

[15] = tested on: MDA-MB-436
Outline: as §1

[16] = tested on: MDA-MB-453
Outline: as §1

[17] = tested on: MDA-MB-468
Outline: as §1

[18] = tested on: MFM-223
Outline: as §1

[19] = tested on: SK-BR-3
Outline: as §1

SMILES | normalised response [1] | normalised response [2] | normalised response [3] | normalised response [4] | normalised response [5] | normalised response [6] | normalised response [7] | normalised response [8] | normalised response [9] | normalised response [10] | normalised response [11] | normalised response [12] | normalised response [13] | normalised response [14] | normalised response [15] | normalised response [16] | normalised response [17] | normalised response [18] | normalised response [19]
COc1nc(N)nc2c1ncn2[C@@H]1O[C@H](CO)[C@@H](O)[C@@H]1O [Nelarabine] (1 nM) | 87.9% | 102% | 94.5% | 84.1% | 117% | 94.9% | 89.5% | 92.3% | 105% | 88.8% | 90.5% | 94.8% | 79.1% | 98.1% | 86% | 90.4% | 84% | 88.2% | 86.1%
COc1nc(N)nc2c1ncn2[C@@H]1O[C@H](CO)[C@@H](O)[C@@H]1O [Nelarabine] (10 nM) | 87.5% | 99.5% | 90.8% | 81.3% | 77.6% | 96.4% | 98% | 96.2% | 88.6% | 102% | 89.9% | 96.5% | 88.7% | 97.4% | 97.7% | 88.1% | 90.5% | 88% | 70.6%
Cc1ccc(Nc2nccc(N(C)c3ccc4c(C)n(C)nc4c3)n2)cc1S(N)(=O)=O [Pazopanib] (1 nM) | 98.1% | 104% | 95.4% | 108% | 98.5% | 110% | 109% | 97.4% | 100% | 96.2% | 101% | 99.8% | 94.8% | 96.8% | 97.3% | 125% | 106% | 99.3% | 109%
CS(=O)(=O)N1CCN(Cc2cc3nc(-c4cccc5[nH]ncc45)nc(N4CCOCC4)c3s2)CC1 [Pictilisib] (10 nM) | 98.3% | 95.7% | 91.4% | 105% | 110% | 103% | 102% | 99.8% | 102% | 99.7% | 95.3% | 96.3% | 102% | 94.2% | 98.9% | 101% | 101% | 96.7% | 105%
O=C(NC[C@H](O)CO)c1ccncc1Nc1ccc(I)cc1F [Pimasertib] (1 nM) | 100% | 100% | 99.8% | 97.7% | 62.2% | 97.9% | 99.9% | 93.2% | 106% | 100% | 93.8% | 97.2% | 82.8% | 105% | 99.5% | 105% | 97.5% | 97.6% | 98.5%
O=C(CCBr)N1CCN(C(=O)CCBr)CC1 [Pipobroman] (1 nM) | 96.6% | 105% | 99.4% | 111% | 106% | 103% | 106% | 99.4% | 105% | 104% | 104% | 102% | 103% | 97.8% | 91.7% | 98.1% | 105% | 99.1% | 115%
O=C(CCBr)N1CCN(C(=O)CCBr)CC1 [Pipobroman] (10 nM) | 102% | 101% | 99.5% | 105% | 89.7% | 102% | 106% | 100% | 117% | 104% | 105% | 101% | 109% | 98.2% | 98.8% | 104% | 108% | 101% | 107%
c1cc(CN2CCCNCCNCCCNCC2)ccc1CN1CCCNCCNCCCNCC1 [Plerixafor] (1 nM) | 95.8% | 105% | 102% | 98.5% | 82.4% | 92.3% | 91% | 98.7% | 105% | 95.9% | 103% | 98.2% | 81.4% | 96.9% | 94.3% | 87.1% | 97.3% | 85.5% | 81.3%
C[C@]12C=CC(=O)C=C1CC[C@@H]1[C@@H]2[C@@H](O)C[C@@]2(C)[C@H]1CC[C@]2(O)C(=O)CO [Prednisolone] (1 nM) | 106% | 112% | 110% | 110% | 84.8% | 96.9% | 108% | 96.9% | 102% | 96.9% | 101% | 102% | 104% | 102% | 102% | 112% | 106% | 102% | 110%
C[C@]12C=CC(=O)C=C1CC[C@@H]1[C@@H]2[C@@H](O)C[C@@]2(C)[C@H]1CC[C@]2(O)C(=O)CO [Prednisolone] (10 nM) | 112% | 99.8% | 103% | 113% | 99.4% | 102% | 106% | 100% | 97.6% | 100% | 100% | 101% | 112% | 108% | 95.9% | 106% | 105% | 104% | 112%
Cn1cc(CNCC2CCN(c3ncc(C(=O)NO)cn3)CC2)c2ccccc21 [Quisinostat] (0.1 nM) | 104% | 99.8% | 103% | 109% | 84.2% | 107% | 103% | 105% | 92.9% | 99.6% | 100% | 96.5% | 109% | 106% | 101% | 109% | 109% | 104% | 108%
Cn1cc(CNCC2CCN(c3ncc(C(=O)NO)cn3)CC2)c2ccccc21 [Quisinostat] (1 nM) | 107% | 97.8% | 96.8% | 110% | 121% | 97.7% | 102% | 103% | 110% | 97.1% | 94.3% | 96.8% | 107% | 101% | 104% | 105% | 97% | 104% | 102%
CC(C)N(CCCNC(=O)Nc1ccc(C(C)(C)C)cc1)C[C@H]1O[C@@H](n2cc(Br)c3c(N)ncnc32)[C@H](O)[C@@H]1O [SGC0946] (1 nM) | 93.8% | 99.2% | 94.9% | 99.5% | 104% | 98.4% | 98.5% | 89.9% | 93.8% | 92.7% | 94.5% | 96% | 101% | 93.2% | 102% | 95.3% | 97.7% | 91.3% | 97.5%
CC(C)N(CCCNC(=O)Nc1ccc(C(C)(C)C)cc1)C[C@H]1O[C@@H](n2cc(Br)c3c(N)ncnc32)[C@H](O)[C@@H]1O [SGC0946] (10 nM) | 98.8% | 93.1% | 92.9% | 91.2% | 108% | 94% | 93.6% | 99.9% | 93.8% | 89.6% | 97.2% | 98.1% | 97.4% | 97.5% | 92.3% | 89.4% | 86.9% | 96.6% | 105%
CNC(=O)c1cc(Oc2ccc(NC(=O)Nc3ccc(Cl)c(C(F)(F)F)c3)cc2)ccn1 [Sorafenib] (0.1 nM) | 105% | 104% | 100% | 106% | 118% | 101% | 101% | 99.7% | 103% | 97.7% | 99.7% | 98.3% | 95.7% | 107% | 102% | 108% | 101% | 98.8% | 102%
CCN(CC)CCNC(=O)c1c(C)[nH]c(/C=C2\C(=O)Nc3ccc(F)cc32)c1C [Sunitinib] (0.1 nM) | 104% | 100% | 105% | 108% | 81.7% | 99.9% | 96.1% | 103% | 94.7% | 95.8% | 98.5% | 93.5% | 99.3% | 106% | 94.9% | 106% | 103% | 103% | 114%
CCN(CC)CCNC(=O)c1c(C)[nH]c(/C=C2\C(=O)Nc3ccc(F)cc32)c1C [Sunitinib] (1 nM) | 109% | 95.5% | 107% | 103% | 141% | 99.9% | 99.4% | 103% | 119% | 107% | 97.1% | 97.7% | 107% | 101% | 104% | 105% | 106% | 105% | 111%
CC[C@@]1(O)C(=O)OCc2c1cc1n(c2=O)Cc2cc3c(CN(C)C)c(O)ccc3nc2-1 [Topotecan] (1 nM) | 93.2% | 97.3% | 92.5% | 97.6% | 68.1% | 95.6% | 95.3% | 92.8% | 95% | 97% | 99.7% | 105% | 97.3% | 97.9% | 99.3% | 103% | 94.7% | 93.7% | 99.2%
